Where two headings read alike, the source gives them in different places.
Tests used:
[1] = target: T1, ERR1 (also known as ERR-α or ERR-1) (Homo sapiens, UniProt P11474); test: TR-FRET assay (disruption of co-activator peptide binding to ERR1 LBD); assay type: biochemical; settings: 6 nM 6His-ERR1LBD, 6 nM GST-SRC-2 peptide; average of 3 independent experiments
T1 sequence (P11474 193-421 limits assumed): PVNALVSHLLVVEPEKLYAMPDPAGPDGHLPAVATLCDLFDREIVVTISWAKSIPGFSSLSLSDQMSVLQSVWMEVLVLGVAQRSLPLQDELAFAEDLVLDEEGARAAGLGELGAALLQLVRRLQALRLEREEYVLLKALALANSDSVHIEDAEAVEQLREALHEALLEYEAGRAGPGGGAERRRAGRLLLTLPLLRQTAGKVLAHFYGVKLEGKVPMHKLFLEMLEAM
In short: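 His-tagged ERR1 ligand-binding domain and GST-labelled SRC-2 peptide, each 6 nM, equilibrated at 25° C for 4-18 h in Tris pH 8/Hepes/KCl/DTT/delipidated BSA buffer. Compound-induced loss of co-activator binding read as Eu cryptate→XL665 energy transfer; values from hyperbolic curve fits averaged over 3 independent runs.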

Zucker fa/fa male rats = test: Zucker fa/fa Rat Model Assay; assay type: in vivo; settings: po, 120 h, 10 mg/kg orally once a day for 4 days
Description: Zucker fa/fa is a monogenic model of frank diabetes due to a mutation on the fa gene truncating the leptin receptor and preventing its interaction with its peptide hormone. This mutation results in a hyperphagic phenotype and the rodent develops obesity, hyperlipidemia, fasting hyperglycemia and insulin resistance. Zucker fa/fa male rats were received at four weeks of age and allowed to acclimate for one week. At five weeks of age the animals were single housed in cages in a temperature-controlled room with 12-hour light/dark cycle. The rats were allowed ad libitum access to water and food and throughout the study were maintained on a Purina 5008 diet. Animals were sorted based primarily on fed insulin levels and circulating triglycerides. Animals were dosed orally once a day (10 mg/kg) in the morning for 4 days. The vehicle used was either 20% HPβCD (Hydroxypropyl Beta Cyclodextrin) or 15% Vitamin E/30% PEG-400 (Polyethylene Glycol 400). Fed insulin and triglycerides were measured using blood collected from the tail vein at day 5. Serum plasma samples were prepared by centrifugation in EDTA (Ethylenediaminetetraacetic acid) containing tubes, transferred into 96 well plates and stored at −80° C.

[2] = blood from tail vein at day 5, read-out: % Change Fed Insulin Levels
[3] = blood from tail vein at day 5, read-out: % Change Fed Triglyceride Levels

Row | EC50 [1] [µM] | Compound | change in vivo at 10 mg/kg (Zucker fa/fa male rats; [2]) [%] | change in vivo at 10 mg/kg (Zucker fa/fa male rats; [3]) [%]
1 | 0.015 | O=C1S/C(=C\c2ccc3c(cnn3Cc3ccc(Cl)cc3C(F)(F)F)c2)C(=O)N1C1CCN(CCO)CC1 [Compound 148, (5Z)-5-({1-[4-Chloro-2-(trifluoromethyl)benzyl]-1H-indazol-5-yl}methylidene)-3-[1-(2-hydroxyethyl)piperidin-4-yl]-1,3-thiazolidine-2,4-dione] | -77 | -40
2 | 0.026 | CS(=O)(=O)CCN1CCC(N2C(=O)S/C(=C\c3ccc4c(cnn4Cc4ccc(Cl)cc4C(F)(F)F)c3)C2=O)CC1 [Compound 149, (5Z)-5-({1-[4-Chloro-2-(trifluoromethyl)benzyl]-1H-indazol-5-yl}methylidene)-3-{1-[2-(methylsulfonyl)ethyl]piperidin-4-yl}-1,3-thiazolidine-2,4-dione] | -35 | 10
3 | 0.024 | C[C@H](N)CN1C(=O)S/C(=C\c2ccc3c(cnn3Cc3ccc(Cl)cc3C(F)(F)F)c2)C1=O [Compound 155, 3-[(2S)-2-Aminopropyl]-(5Z)-5-({1-[4-chloro-2-(trifluoromethyl)benzyl]-1H-indazol-5-yl}methylidene)-1,3-thiazolidine-2,4-dione] | -60 | -55
4 | 0.008 | CC(=O)NS(=O)(=O)CN1C(=O)S/C(=C\c2ccc3c(cnn3Cc3ccc(Cl)cc3C(F)(F)F)c2)C1=O [Compound 166, N-({[(5Z)-5-({1-[4-Chloro-2-(trifluoromethyl)benzyl]-1H-indazol-5-yl}methylidene)-2,4-dioxo-1,3-thiazolidin-3-yl]methyl}sulfonyl)acetamide] | -58 | -37
5 | 0.023 | N[C@@H](CO)CN1C(=O)S/C(=C\c2ccc3c(cnn3Cc3ccc(Cl)cc3C(F)(F)F)c2)C1=O [Compound 167, (5Z)-3-[(2R)-2-Amino-3-hydroxypropyl]-5-({1-[4-chloro-2-(trifluoromethyl)benzyl]-1H-indazol-5-yl}methylidene)-1,3-thiazolidine-2,4-dione] | -33 | -45
6 | 0.015 | O=C1S/C(=C\c2ccc3c(cnn3Cc3ccc(Cl)cc3C(F)(F)F)c2)C(=O)N1C[C@H]1COCCN1 [Compound 170, (5Z)-5-({1-[4-Chloro-2-(trifluoromethyl)benzyl]-1H-indazol-5-yl}methylidene)-3-[(3S)-morpholin-3-ylmethyl]-1,3-thiazolidine-2,4-dione] | -52 | -61
7 | 0.035 | O=C1S/C(=C\c2ccc3c(cnn3Cc3ccc(Cl)cc3C(F)(F)F)c2)C(=O)N1C[C@H]1CN2CCC[C@H]2CO1 [Compound 202, (5Z)-5-({1-[4-Chloro-2-(trifluoromethyl)benzyl]-1H-indazol-5-yl}methylidene)-3-[(3R,8aS)-hexahydro-1H-pyrrolo[2,1-c] [1,4]oxazin-3-ylmethyl]-1,3-thiazolidine-2,4-dione] | -3 | -26
8 | 0.041 | O=C(O)CN1C(=O)S/C(=C\c2ccc3c(c2)nnn3Cc2ccc(Cl)cc2C(F)(F)F)C1=O [Compound 260, [(5Z)-5-({1-[4-Chloro-2-(trifluoromethyl)benzyl]-1H-benzotriazol-5-yl}methylidene)-2,4-dioxo-1,3-thiazolidin-3-yl]acetic acid] | -50 | -23
9 | 0.022 | O=C(O)CN1C(=O)S/C(=C\c2ccc3c(c2)c(Cl)nn3Cc2ccc(Cl)cc2C(F)(F)F)C1=O [Compound 287, [(5Z)-5-({1-[4-Chloro-2-(trifluoromethyl)benzyl]-3-chloro-1H-indazol-5-yl}methylidene)-2,4-dioxo-1,3-thiazolidin-3-yl]acetic acid] | -53 | -36
10 | 0.016 | O=C1S/C(=C\c2ccc3c(cnn3Cc3ccc(Cl)cc3C(F)(F)F)c2)C(=O)N1O [Compound 288, (5Z)-5-({1-[4-Chloro-2-(trifluoromethyl)benzyl]-1H-indazol-5-yl}methylidene)-3-hydroxy-1,3-thiazolidine-2,4-dione] | -35 | -29
11 | 0.013 | CS(=O)(=O)NN1C(=O)S/C(=C\c2ccc3c(cnn3Cc3ccc(Cl)cc3C(F)(F)F)c2)C1=O [Compound 361, N-[(5Z)-5-({1-[4-Chloro-2-(trifluoromethyl)benzyl]-1H-indazol-5-yl}methylidene)-2,4-dioxo-1,3-thiazolidin-3-yl]methanesulfonamide] | -58 | -43
12 | 0.023 | CN1CC[C@@H](N2C(=O)S/C(=C\c3ccc4c(cnn4Cc4ccc(Cl)cc4C(F)(F)F)c3)C2=O)[C@H](F)C1 [Compound 383, (5Z)-5-({1-[4-Chloro-2-(trifluoromethyl)benzyl]-1H-indazol-5-yl}methylidene)-3-[(3R,4R)-3-fluoro-1-methylpiperidin-4-yl]-1,3-thiazolidine-2,4-dione] | -67 | -68
13 | 0.022 | CN1CC[C@H](N2C(=O)S/C(=C\c3ccc4c(cnn4Cc4ccc(Cl)cc4C(F)(F)F)c3)C2=O)[C@@H](F)C1 [Compound 384, (5Z)-5-({1-[4-Chloro-2-(trifluoromethyl)benzyl]-1H-indazol-5-yl}methylidene)-3-[(3S,4S)-3-fluoro-1-methylpiperidin-4-yl]-1,3-thiazolidine-2,4-dione] | -52 | -51
